Results as given in patent publication US4065356A, “Production of antibiotic FR-02A (efrotomycin) by streptomyces lactamdurans” (priority 1977, dated 1977).
Where a name gives a salt, the structure may show the parent alone.

Assay: solubility
Type: physicochemical

Row | solubility in water-immiscible organic solvents (water-immiscible organic solvents) | Compound | solubility in alcohol and chloroform (ammonium salt, alcohol and chloroform) | solubility in water (ammonium salt, water at pH 7.0 or higher)
1 |  | CC=CC=CC1OC(O)(C(CC)C(=O)NCC=CC=C(C)C(OC)C(C)C2OC(C=CC=CC=C(C)C(=O)c3c(O)ccn(C)c3=O)C(O)C2O)C(O)C(OC2OC(C)C(OC3OC(C)C(OC)C(O)C3OC)C(OC)C2O)C1(C)C (stereo not drawn) [FR-02A as the ammonium salt] | soluble | moderately soluble
2 | virtually insoluble | CO[C@@]1(NC(=O)CCC[C@@H](N)C(=O)O)C(=O)N2C(C(=O)O)=C(COC(N)=O)CS[C@@H]21 [Cephamycin C, reference compound] |  | 
